Assays:
[1] = in vivo; conditions: ICR, mouse, po, 15 mg/kg
[2] = in vivo; conditions: ICR, mouse, iv, 5 mg/kg
[3] = in vivo; conditions: ICR, mouse, iv, 5 mg/kg; remark: listed apart in the source
[4] = in vivo; conditions: ICR, mouse, iv, 5 mg/kg; remark: listed apart in the source
[5] = in vivo; conditions: ICR, mouse, po, 15 mg/kg; remark: listed apart in the source
[6] = in vivo; conditions: ICR, mouse, po, 15 mg/kg; remark: listed apart in the source
[7] = in vivo; conditions: ICR, mouse, iv, 5 mg/kg; remark: listed apart in the source
[8] = in vivo; conditions: ICR, mouse, po, 15 mg/kg; remark: listed apart in the source
[9] = in vivo; conditions: ICR, mouse, po, 15 mg/kg; remark: listed apart in the source
[10] = in vivo; conditions: ICR, mouse, iv, 5 mg/kg; remark: listed apart in the source
[11] = in vivo; conditions: ICR, mouse, iv, 5 mg/kg; remark: listed apart in the source

**Q.** With `COc1cc(-c2n[nH]c3ncc(-c4ccc(C)c(NCCO)c4)cc23)cc(OC)c1OC` as the molecule, how does the half-life at 24 h [1] read?
**A.** Its half-life at 24 h is 72 min.

**Q.** And the half-life at 24 h [2]?
**A.** Its half-life at 24 h is 78 min.

**Q.** What about the clearance at 24 h [3] of the same molecule?
**A.** The clearance at 24 h was 73.3 mL/min/kg.

**Q.** What about the AUC(0-t) at 24 h [4] of the same molecule?
**A.** Its AUC(0-t) at 24 h is 1150 ng·h/mL.

**Q.** What about the AUC(0-t) at 24 h [5] of the same molecule?
**A.** Its AUC(0-t) at 24 h is 110 ng·h/mL.

**Q.** What about the bioavailability at 24 h [6] of the same molecule?
**A.** The bioavailability at 24 h was 3.2%.

**Q.** And the Tmax at 24 h [7]?
**A.** The Tmax at 24 h was 6 min.

**Q.** What about the Tmax at 24 h [8] of the same molecule?
**A.** Its Tmax at 24 h is 18 min.

**Q.** What about the Cmax at 24 h [9] of the same molecule?
**A.** Its Cmax at 24 h is 115 ng/mL.

**Q.** What about the Cmax at 24 h [10] of the same molecule?
**A.** The Cmax at 24 h was 3850 ng/mL.

**Q.** And the Vd at 24 h [11]?
**A.** The Vd at 24 h was 1.3 L/kg.
